Values after ≈ are worked out from the molar mass of the structure shown.
What was measured:
[1] = test system: C. albicans (ATCC 90028); test: Minimum inhibitory concentration, in vitro broth microdilution assay (CLSI M27-A2); format: cell-based, Candida albicans; conditions: ATCC 90028, about 50% growth reduction, 2 days at 36° C., range tested 8-0.0078 μg/mL, values given as ranges; for MIC: Candida albicans, ATCC90028, 48 h, read-out: Candida albicans MIC
Summary of the method: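 Inoculum of 1×10^3 to 1×10^4 CFU/mL in RPMI-1640+MOPS, exposed to 11 two-fold serial compound concentrations at 2 percent final DMSO, per CLSI M27-A2. After 2 days at 36° C, wells scored visually for growth to give MIC; tested in duplicate.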

[2] = test system: A. fumigatus; test: A. fumigatus MIC at 100% growth inhibition (CLSI M38-A2); format: cell-based, Aspergillus fumigatus; conditions: 100% growth inhibition, range tested 8-0.0078 μg/mL, values given as ranges; for MIC: Aspergillus fumigatus, read-out: Aspergillus fumigatus MIC
Protocol: A. fumigatus MICs were determined at 100% growth inhibition following CLSI guidelines at a concentration range of 8-0.0078 μg/mL (CLSI M38-A2).

| SMILES | Candida albicans MIC [1] [µg/mL] | Aspergillus fumigatus MIC [2] [µg/mL] | MIC [1] [µg/mL] | MIC [2] [µg/mL] |
| --- | --- | --- | --- | --- |
| OC(c1cn(-c2ccc(N3CCN(c4ccc(-c5ccc(C(F)(F)C(O)(Cn6cnnn6)c6ccccc6F)nc5)cc4)CC3)cc2)nn1)C(F)(F)F (single isomer, unassigned; (+)) [108(+), (+)-1,1-difluoro-2-(2-fluorophenyl)-3-(1H-tetrazol-1-yl)-1-(5-(4-(4-(4-(4-(2,2,2-trifluoro-1-hydroxyethyl)-1H-1,2,3-triazol-1-yl)phenyl)piperazin-1-yl)phenyl)pyridin-2-yl) propan-2-ol] | ≤0.0078 to 0.010 | 0.25 to 1.0 | – | – |
| OC(c1cccc(N2CCN(c3ccc(-c4ccc(C(F)(F)[C@](O)(Cn5cnnn5)c5ccc(F)cc5F)nc4)cc3)CC2)c1)C(F)(F)F (stereo partly drawn) [Example 86, (2R)-2-(2,4-difluorophenyl)-1,1-difluoro-3-(1H-tetrazol-1-yl)-1-(5-(4-(4-(3-(2,2,2-trifluoro-1-hydroxyethyl)phenyl)piperazin-1-yl)phenyl)pyridin-2-yl) propan-2-ol] | – | – | 0.0078 to 0.01 (≈ 0.0113 to 0.0145 µM) | 0.25 to 1 (≈ 0.364 to 1.45 µM) |
| N#Cc1ccc(N2CCN(c3ccc(-c4ccc(C(F)(F)[C@](O)(Cn5cnnn5)c5ccc(F)cc5F)nc4)cc3)C(=O)C2)cc1 [Example 24, (R)-4-(4-(4-(6-(2-(2,4-difluorophenyl)-1,1-difluoro-2-hydroxy-3-(1H-tetrazol-1-yl)propyl)pyridin-3-yl)phenyl)-3-oxopiperazin-1-yl) benzonitrile] | – | – | 0.0078 to 0.01 (≈ 0.0124 to 0.0159 µM) | > 8 |
| O=c1n(-c2ccc(N3CCN(c4ccc(-c5ccc(C(F)(F)[C@](O)(Cn6cnnn6)c6ccc(F)cc6F)nc5)cc4)CC3)cc2)cnn1CC(F)(F)F [Example 58, (R)-4-(4-(4-(4-(6-(2-(2,4-difluorophenyl)-1,1-difluoro-2-hydroxy-3-(1H-tetrazol-1-yl)propyl)pyridin-3-yl)phenyl)piperazin-1-yl)phenyl)-2-(2,2,2-trifluoroethyl)-2,4-dihydro-3H-1,2,4-triazol-3-one] | – | – | 0.0078 to 0.01 (≈ 0.0103 to 0.0133 µM) | 0.062 to 0.25 (≈ 0.0822 to 0.331 µM) |
| CC[C@@H]([C@H](C)O)N(C)C(=O)c1ccc(N2CCN(c3ccc(-c4ccc(C(F)(F)[C@](O)(Cn5cnnn5)c5ccc(F)cc5F)nc4)cc3)CC2)cc1 [Example 83, 4-(4-(4-(6-((R)-2-(2,4-difluorophenyl)-1,1-difluoro-2-hydroxy-3-(1H-tetrazol-1-yl)propyl)pyridin-3-yl)phenyl)piperazin-1-yl)-N-((2S,3S)-2-hydroxypentan-3-yl)-N-methylbenzamide] | – | – | 0.01 to 0.1 (≈ 0.0136 to 0.136 µM) | 0.25 to 1 (≈ 0.341 to 1.36 µM) |
| CC(C)(O)Cn1ncn(-c2ccc(N3CCN(c4ccc(-c5ccc(C(F)(F)[C@](O)(Cn6cnnn6)c6ccc(F)cc6F)nc5)cc4)CC3)cc2)c1=O [Example 67, (R)-4-(4-(4-(4-(6-(2-(2,4-difluorophenyl)-1,1-difluoro-2-hydroxy-3-(1H-tetrazol-1-yl)propyl)pyridin-3-yl)phenyl)piperazin-1-yl)phenyl)-2-(2-hydroxy-2-methylpropyl)-2,4-dihydro-3H-1,2,4-triazol-3-one] | – | – | 0.0078 to 0.01 (≈ 0.0105 to 0.0134 µM) | 0.062 to 0.25 (≈ 0.0832 to 0.336 µM) |
| CCC(c1nc2cc(N3CCN(c4ccc(-c5ccc(C(F)(F)[C@](O)(Cn6cnnn6)c6ccc(F)cc6F)nc5)cc4)CC3)ccc2[nH]1)C(C)O (stereo partly drawn) [Example 71, 3-(5-(4-(4-(6-((R)-2-(2,4-difluorophenyl)-1,1-difluoro-2-hydroxy-3-(1H-tetrazol-1-yl)propyl)pyridin-3-yl)phenyl)piperazin-1-yl)-1H-benzo [d]imidazol-2-yl)pentan-2-ol] | – | – | 0.0078 to 0.01 (≈ 0.0109 to 0.014 µM) | 0.25 to 1 (≈ 0.349 to 1.4 µM) |
| O[C@@](Cn1cnnn1)(c1ccc(F)cc1F)C(F)(F)c1ccc(-c2ccc(N3CCN(c4ccc5[nH]c(C(F)(F)F)nc5c4)CC3)cc2)cn1 [Example 35, (R)-2-(2,4-difluorophenyl)-1,1-difluoro-3-(1H-tetrazol-1-yl)-1-(5-(4-(4-(2-(trifluoromethyl)-1H-benzo [d]imidazol-5-yl)piperazin-1-yl)phenyl)pyridin-2-yl) propan-2-ol] | – | – | 0.0078 to 0.01 (≈ 0.0112 to 0.0143 µM) | 0.25 to 1 (≈ 0.358 to 1.43 µM) |
| OC(c1cn(-c2ccc(N3CCN(c4ccc(-c5ccc(C(F)(F)C(O)(Cn6cnnn6)c6ccccc6F)nc5)cc4)CC3)cn2)nn1)C(F)(F)F (single isomer, unassigned; (-)) [110(−), (−)-1,1-difluoro-2-(2-fluorophenyl)-3-(1H-tetrazol-1-yl)-1-(5-(4-(4-(6-(4-(2,2,2-trifluoro-1-hydroxyethyl)-1H-1,2,3-triazol-1-yl)pyridin-3-1)piperazin-1-yl)phenyl)pyridin-2-yl) propan-2-ol] | >8 | >8 | – | – |
| N#Cc1ccc(N2CCC(c3ccc(-c4ccc(C(F)(F)[C@](O)(Cn5cnnn5)c5ccc(F)cc5F)nc4)cc3)CC2)cc1 [Example 22, (R)-4-(4-(4-(6-(2-(2,4-difluorophenyl)-1,1-difluoro-2-hydroxy-3-(1H-tetrazol-1-yl)propyl)pyridin-3-yl)phenyl)piperidin-1-yl) benzonitrile] | – | – | 0.0078 to 0.01 (≈ 0.0127 to 0.0163 µM) | 0.25 to 1 (≈ 0.407 to 1.63 µM) |
| OC(CC(F)(F)F)c1ccc(N2CCN(c3ccc(-c4ccc(C(F)(F)[C@](O)(Cn5cncn5)c5ccc(F)cc5F)nc4)cc3)CC2)cn1 (single isomer, unassigned; (+)) [120(+)] | ≤0.0078 to 0.010 | 0.062 to 0.25 | – | – |
| CC[C@@H]([C@H](C)O)n1ncn(-c2ccc(N3CCN(c4ccc(-c5ccc(C(F)(F)C(O)(Cn6cncn6)c6ccc(F)cc6F)nc5)cc4)CC3)cc2)c1=O (single isomer, unassigned; (+)) [123(+)] | 0.010 to 0.10 | 0.062 to 0.25 | – | – |
| CC(C)(O)c1ccc(N2CCN(c3ccc(-c4ccc(C(F)(F)[C@](O)(Cn5cnnn5)c5ccc(F)cc5F)nc4)cc3)CC2)cn1 [Example 47, (R)-2-(2,4-difluorophenyl)-1,1-difluoro-1-(5-(4-(4-(6-(2-hydroxypropan-2-yl)pyridin-3-yl)piperazin-1-yl)phenyl)pyridin-2-yl)-3-(1H-tetrazol-1-yl) propan-2-ol] | – | – | 0.01 to 0.1 (≈ 0.0154 to 0.154 µM) | 0.25 to 1 (≈ 0.385 to 1.54 µM) |
| CC(O)C(F)(F)c1ccc(N2CCN(c3ccc(-c4ccc(C(F)(F)[C@](O)(Cn5cnnn5)c5ccc(F)cc5F)nc4)cc3)CC2)cn1 (stereo partly drawn) [Example 99, (2R)-1-(5-(4-(4-(6-(1,1-difluoro-2-hydroxypropyl)pyridin-3-yl)piperazin-1-yl)phenyl)pyridin-2-yl)-2-(2,4-difluorophenyl)-1,1-difluoro-3-(1H-tetrazol-1-yl) propan-2-ol] | – | – | 0.0078 to 0.01 (≈ 0.0114 to 0.0146 µM) | 0.25 to 1 (≈ 0.365 to 1.46 µM) |
| CC[C@@H]([C@H](C)O)n1ncn(-c2ccc(N3CCN(c4ccc(-c5ccc(C(F)(F)[C@](O)(Cn6cnnn6)c6ccc(F)cc6)nc5)cc4)CC3)cn2)c1=O [109(+), (+)-4-(5-(4-(4-(6-((R)-1,1-difluoro-2-(4-fluorophenyl)-2-hydroxy-3-(1H-tetrazol-1-yl)propyl)pyridin-3-yl)phenyl)piperazin-1-yl)pyridin-2-yl)-2-((2S,3S)-2-hydroxypentan-3-yl)-2,4-dihydro-3H-1,2,4-triazol-3-one] | ≤0.0078 to 0.010 | 0.25 to 1.0 | – | – |
| OC(c1ccc(N2CCN(c3ccc(-c4ccc(C(F)(F)[C@](O)(Cn5cnnn5)c5ccc(F)cc5F)nc4)cc3)CC2)cc1)C(F)(F)F (stereo partly drawn) [Example 3, (2R)-2-(2,4-difluorophenyl)-1,1-difluoro-3-(1H-tetrazol-1-yl)-1-(5-(4-(4-(4-(2,2,2-trifluoro-1-hydroxyethyl)phenyl)piperazin-1-yl)phenyl)pyridin-2-yl) propan-2-ol] | – | – | 0.0078 to 0.01 (≈ 0.0113 to 0.0145 µM) | 0.25 to 1 (≈ 0.364 to 1.45 µM) |
| CC(C)(O)c1ccc(N2CCN(c3ccc(-c4ccc(C(F)(F)[C@](O)(Cn5cnnn5)c5ccc(F)cc5F)nc4)cc3)CC2)cc1 [Example 72, (R)-2-(2,4-difluorophenyl)-1,1-difluoro-1-(5-(4-(4-(4-(2-hydroxypropan-2-yl)phenyl)piperazin-1-yl)phenyl)pyridin-2-yl)-3-(1H-tetrazol-1-yl) propan-2-ol] | – | – | 0.0078 to 0.01 (≈ 0.012 to 0.0154 µM) | 0.25 to 1 (≈ 0.386 to 1.54 µM) |
| CC(C)C(O)c1ccc(N2CCN(c3ccc(-c4ccc(C(F)(F)[C@](O)(Cn5cnnn5)c5ccc(F)cc5F)nc4)cc3)CC2)cn1 (stereo partly drawn) [Example 45, 1-(5-(4-(4-(6-((R)-2-(2,4-difluorophenyl)-1,1-difluoro-2-hydroxy-3-(1H-tetrazol-1-yl)propyl)pyridin-3-yl)phenyl)piperazin-1-yl)pyridin-2-yl)-2-methylpropan-1-ol] | – | – | 0.0078 to 0.01 (≈ 0.0118 to 0.0151 µM) | 0.25 to 1 (≈ 0.377 to 1.51 µM) |
| CN(C)CCn1ncn(-c2ccc(N3CCN(c4ccc(-c5ccc(C(F)(F)[C@](O)(Cn6cnnn6)c6ccc(F)cc6F)nc5)cc4)CC3)cc2)c1=O [Example 61, (R)-4-(4-(4-(4-(6-(2-(2,4-difluorophenyl)-1,1-difluoro-2-hydroxy-3-(1H-tetrazol-1-yl)propyl)pyridin-3-yl)phenyl)piperazin-1-yl)phenyl)-2-(2-(dimethylamino)ethyl)-2,4-dihydro-3H-1,2,4-triazol-3-one] | – | – | 0.01 to 0.1 (≈ 0.0134 to 0.134 µM) | 0.25 to 1 (≈ 0.336 to 1.34 µM) |
| O=Cc1ccc(N2CCN(c3ccc(-c4ccc(C(F)(F)[C@](O)(Cn5cnnn5)c5ccc(F)cc5F)nc4)cc3)CC2)cc1 [Example 29, (R)-4-(4-(4-(6-(2-(2,4-difluorophenyl)-1,1-difluoro-2-hydroxy-3-(1H-tetrazol-1-yl)propyl)pyridin-3-yl)phenyl)piperazin-1-yl) benzaldehyde] | – | – | 0.01 to 0.1 (≈ 0.0162 to 0.162 µM) | > 8 |
